Experimental data reported in BindingDB's records for doi:10.1021/jm00039a015 (Abbott Laboratories, 1994).

Molecular target: Platelet-activating factor receptor (Oryctolagus cuniculus)
Experiment: Antagonist activity against platelet activating factor (PAF) receptor in rabbit platelet membranes using [3H]C18-PAF as radioligand

| Structure (SMILES) | Ki [µM] |
| --- | --- |
| Cc1ccc2c(c1)c(C(=O)[C@@H]1CSC(c3cccnc3)N1)c(C)n2C(=O)OC(C)(C)C (stereo partly drawn) [2,5-Dimethyl-3-((R)-2-pyridin-3-yl-thiazolidine-4-carbonyl)-indole-1-carboxylic acid tert-butyl ester; compound with oxalic acid] | 0.077 |
| Cc1c(C(=O)[C@@H]2CSC(c3cccnc3)N2)c2ccccc2n1C(=O)OC(C)(C)C (stereo partly drawn) [2-Methyl-3-((R)-2-pyridin-3-yl-thiazolidine-4-carbonyl)-indole-1-carboxylic acid tert-butyl ester; compound with oxalic acid] | 0.0095 |
| O=C(Nc1cccc(Cl)c1)c1ccn2c1CSC2c1cccnc1 (configuration not stated) [RP-52770] | 0.274 |
| COC(=O)CCn1cc(C(=O)[C@@H]2CSC(c3cccnc3)N2)c2ccccc21 (stereo partly drawn) [3-[3-((R)-2-Pyridin-3-yl-thiazolidine-4-carbonyl)-indol-1-yl]-propionic acid methyl ester] | 0.0046 |
| Cc1c(C(=O)[C@@H]2CSC(c3cccnc3)N2)c2ccccc2n1C(=O)N1CCOCC1 (stereo partly drawn) [[2-Methyl-3-((R)-2-pyridin-3-yl-thiazolidine-4-carbonyl)-indol-1-yl]-morpholin-4-yl-methanone] | 0.088 |
| O=C(c1cn(CC(F)(F)F)c2ccccc12)[C@@H]1CSC(c2cccnc2)N1 (stereo partly drawn) [((R)-2-Pyridin-3-yl-thiazolidin-4-yl)-[1-(2,2,2-trifluoro-ethyl)-1H-indol-3-yl]-methanone] | 0.021 |
| O=C(c1c[nH]c2ccccc12)[C@@H]1CS[C@H](c2cccnc2)N1C(=O)C(F)(F)F | 1.64 |
| CC(=O)N1C(c2cccnc2)SC[C@H]1C(=O)c1c[nH]c2ccccc12 (stereo partly drawn) [1-[(R)-4-(1H-Indole-3-carbonyl)-2-pyridin-3-yl-thiazolidin-3-yl]-ethanone] | 17.8 |

Other lines, results leading:

| Ki [µM] | Structure (SMILES) |
| --- | --- |
| 0.0014 | CN(C)C(=O)n1cc(C(=O)[C@@H]2CSC(c3cccnc3)N2)c2ccc(OCc3ccccc3)cc21 (stereo partly drawn) [6-Benzyloxy-3-((R)-2-pyridin-3-yl-thiazolidine-4-carbonyl)-indole-1-carboxylic acid dimethylamide; compound with oxalic acid] |
| 0.014 | CN(C)C(=O)n1cc(C(=O)[C@@H]2CSC(c3cccnc3)N2)c2cccc(OCc3ccccc3)c21 (stereo partly drawn) [7-Benzyloxy-3-((R)-2-pyridin-3-yl-thiazolidine-4-carbonyl)-indole-1-carboxylic acid dimethylamide] |
| 0.014 | O=C(c1c[nH]c2cc(-c3ccccc3)ccc12)[C@@H]1CSC(c2cccnc2)N1 (stereo partly drawn) [(6-Phenyl-1H-indol-3-yl)-((R)-2-pyridin-3-yl-thiazolidin-4-yl)-methanone] |
| 0.0016 | O=C(c1c[nH]c2cc(OCc3ccccc3)ccc12)[C@@H]1CSC(c2cccnc2)N1 (stereo partly drawn) [(6-Benzyloxy-1H-indol-3-yl)-((R)-2-pyridin-3-yl-thiazolidin-4-yl)-methanone] |
| 0.0036 | CN(C)C(=O)n1cc(C(=O)[C@@H]2CSC(c3cccnc3)N2)c2ccc(-c3ccccc3)cc21 (stereo partly drawn) [6-Phenyl-3-((R)-2-pyridin-3-yl-thiazolidine-4-carbonyl)-indole-1-carboxylic acid dimethylamide] |
| 0.031 | CN(C(=O)n1cc(C(=O)[C@@H]2CSC(c3cccnc3)N2)c2ccccc21)c1ccccc1 (stereo partly drawn) [3-((R)-2-Pyridin-3-yl-thiazolidine-4-carbonyl)-indole-1-carboxylic acid methyl-phenyl-amide] |
| 0.052 | O=C([C@@H]1CSC(c2cccnc2)N1)n1ccc2ccc(OCc3ccccc3)cc21 (stereo partly drawn) [(6-Benzyloxy-indol-1-yl)-((R)-2-pyridin-3-yl-thiazolidin-4-yl)-methanone] |
| 0.001 | CC(C)(C)OC(=O)n1cc(C(=O)[C@@H]2CSC(c3cccnc3)N2)c2ccccc21 (stereo partly drawn) [3-((R)-2-Pyridin-3-yl-thiazolidine-4-carbonyl)-indole-1-carboxylic acid tert-butyl ester] |
| 0.04 | CN(C)C(=O)n1cc(C(=O)[C@@H]2CSC(c3cccnc3)N2)c2ccc(-c3cccnc3)cc21 (stereo partly drawn) [6-Pyridin-3-yl-3-((R)-2-pyridin-3-yl-thiazolidine-4-carbonyl)-indole-1-carboxylic acid dimethylamide] |
